From ChEMBL document CHEMBL5346899, “PKM2/PDK1 dual-targeted shikonin derivatives restore the sensitivity of EGFR-mutated NSCLC cells to gefitinib by remodeling glucose metabolism” (Eur J Med Chem, 2023)
The source made the active and inactive calls. The rule behind the calls is not given here.

Assays:
[1] = tested on: NCI-H1299; assay: cells; type: functional, cell-based; details: Homo sapiens, NCI-H1299, 24 h
Description: Antiproliferative activity against human NCI-H1299 cells assessed as inhibition of cell growth incubated for 24 hrs by CCK-8 assay

[2] = tested on: HCC827; assay: cells; type: functional, cell-based; details: Homo sapiens, HCC827, 24 h
Description: Antiproliferative activity against human HCC827 cells assessed as inhibition of cell growth incubated for 24 hrs by CCK-8 assay

[3] = tested on: NCI-H1975; assay: Antiproliferative activity against human NCI-H1975 cells assessed as reduction in clone size; type: functional, cell-based
[4] = tested on: NCI-H1299; assay: Induction of apoptosis in human NCI-H1299 cells assessed as early apoptotic cells at 1 micromol/L incubated for 24 hrs by Annexin V-FITC/PI staining based analysis (reference value: 2.43%); type: functional; details: dose 1 µmol/L, at 1 µM
[5] = tested on: NCI-H1299; assay: Induction of apoptosis in human NCI-H1299 cells assessed as late apoptotic cells at 1 micromol/L incubated for 24 hrs by Annexin V-FITC/PI staining based analysis (reference value: 14.9%); type: functional; details: dose 1 µmol/L, at 1 µM
[6] = tested on: NCI-H1975; assay: Induction of apoptosis in human NCI-H1975 cells assessed as early apoptotic cells at 1 micromol/L incubated for 24 hrs by Annexin V-FITC/PI staining based analysis (reference value: 1.88%); type: functional; details: dose 1 µmol/L, at 1 µM
[7] = tested on: NCI-H1975; assay: Induction of apoptosis in human NCI-H1975 cells assessed as early apoptotic cells at 2 micromol/L incubated for 24 hrs by Annexin V-FITC/PI staining based analysis (reference value: 1.88%); type: functional; details: dose 2 µmol/L, at 2 µM
[8] = tested on: HCC827; assay: Induction of apoptosis in human HCC827 cells assessed as early apoptotic cells at 1 micromol/L incubated for 24 hrs by Annexin V-FITC/PI staining based analysis (reference value: 9.14%); type: functional; details: dose 1 µmol/L, at 1 µM
[9] = tested on: HCC827; assay: Induction of apoptosis in human HCC827 cells assessed as late apoptotic cells at 1 micromol/L incubated for 24 hrs by Annexin V-FITC/PI staining based analysis (reference value: 8.42%); type: functional; details: dose 1 µmol/L, at 1 µM
[10] = tested on: HCC827; assay: Induction of apoptosis in human HCC827 cells assessed as late apoptotic cells at 2 micromol/L incubated for 24 hrs by Annexin V-FITC/PI staining based analysis (reference value: 8.42%); type: functional; details: dose 2 µmol/L, at 2 µM
[11] = tested on: NCI-H1975; assay: Induction of apoptosis in human NCI-H1975 cells assessed as regulation of PARP expression by Western blot analysis; type: functional, cell-based
[12] = tested on: NCI-H1975; assay: Induction of apoptosis in human NCI-H1975 cells assessed as regulation of cleaved PARP expression by Western blot analysis; type: functional, cell-based
[13] = tested on: NCI-H1975; assay: Induction of apoptosis in human NCI-H1975 cells assessed as regulation of cleaved Caspase-9 expression by Western blot analysis; type: functional, cell-based
[14] = tested on: NCI-H1975; assay: Induction of apoptosis in human NCI-H1975 cells assessed as regulation of cleaved Caspase-3 expression by Western blot analysis; type: functional, cell-based
[15] = tested on: NCI-H1975; assay: Induction of apoptosis in human NCI-H1975 cells assessed as regulation of cytochrome c expression by Western blot analysis; type: functional, cell-based
[16] = tested on: NCI-H1975; assay: Induction of apoptosis in human NCI-H1975 cells assessed as regulation of caspase-8 expression by Western blot analysis; type: functional, cell-based
[17] = tested on: NCI-H1975; assay: Induction of apoptosis in human NCI-H1975 cells assessed as regulation of cleaved caspase-8 expression by Western blot analysis; type: functional, cell-based
[18] = tested on: NCI-H1975; assay: Induction of mitochondrial transmembrane potential dissipation in human NCI-H1975 cells assessed as cells with high mitochondrial transmembrane potential at 0.5 micromol/L by FL-1/FL-2 channel based fluorescence analysis (reference value: 97.4%); type: functional; details: dose 0.5 µmol/L; at 0.5 µM
[19] = tested on: NCI-H1975; assay: Induction of mitochondrial transmembrane potential dissipation in human NCI-H1975 cells assessed as cells with high mitochondrial transmembrane potential at 1 micromol/L by FL-1/FL-2 channel based fluorescence analysis (reference value: 97.4%); type: functional; details: dose 1 µmol/L; at 1 µM
[20] = tested on: NCI-H1975; assay: Induction of intracellular ROS accumulation in human NCI-H1975 cells; type: functional, cell-based
[21] = target: T1, Pyruvate kinase PKM (Homo sapiens, UniProt P14618); assay: Binding affinity to PKM2 (unknown origin) assessed as dissociation constant associated for 60 secs and dissociated for 90 secs by bio-layer interferometry analysis
Target sequence in this assay (P14618 whole entry): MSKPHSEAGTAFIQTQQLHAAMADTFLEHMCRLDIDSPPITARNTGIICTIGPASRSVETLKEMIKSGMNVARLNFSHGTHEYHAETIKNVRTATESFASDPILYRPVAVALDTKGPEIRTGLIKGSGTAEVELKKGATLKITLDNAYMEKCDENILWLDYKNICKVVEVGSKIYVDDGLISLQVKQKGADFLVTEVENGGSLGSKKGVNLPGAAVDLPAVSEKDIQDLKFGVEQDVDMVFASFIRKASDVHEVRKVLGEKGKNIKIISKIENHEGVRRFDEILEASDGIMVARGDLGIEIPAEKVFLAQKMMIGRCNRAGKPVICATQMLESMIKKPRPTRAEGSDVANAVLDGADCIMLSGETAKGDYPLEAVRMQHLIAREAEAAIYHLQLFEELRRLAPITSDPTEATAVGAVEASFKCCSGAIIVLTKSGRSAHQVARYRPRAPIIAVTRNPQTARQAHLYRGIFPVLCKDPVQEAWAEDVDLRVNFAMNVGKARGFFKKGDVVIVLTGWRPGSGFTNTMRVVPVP

[22] = target: T1, Pyruvate kinase PKM; assay: Activation of PKM2 in human NCI-H1975 cells at 1 to 2 micromol/L by Western blot analysis; type: cell-based; details: filed as activator, dose 1-2 µmol/L
Target sequence in this assay (P14618 2-531 limits assumed): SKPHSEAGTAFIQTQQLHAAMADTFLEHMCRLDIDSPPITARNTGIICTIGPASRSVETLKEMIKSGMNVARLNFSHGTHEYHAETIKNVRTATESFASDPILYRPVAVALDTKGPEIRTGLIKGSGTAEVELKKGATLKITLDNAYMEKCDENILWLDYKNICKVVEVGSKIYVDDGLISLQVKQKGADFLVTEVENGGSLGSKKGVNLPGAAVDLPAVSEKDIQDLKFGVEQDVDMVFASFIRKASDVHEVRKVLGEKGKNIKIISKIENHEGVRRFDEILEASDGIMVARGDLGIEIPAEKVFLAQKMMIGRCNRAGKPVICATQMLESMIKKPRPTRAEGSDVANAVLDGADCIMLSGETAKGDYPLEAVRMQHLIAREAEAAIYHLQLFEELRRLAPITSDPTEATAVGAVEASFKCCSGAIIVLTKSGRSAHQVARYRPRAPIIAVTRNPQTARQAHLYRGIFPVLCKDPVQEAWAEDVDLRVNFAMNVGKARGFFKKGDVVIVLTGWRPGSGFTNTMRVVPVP

[23] = target: T1, Pyruvate kinase PKM; assay: Activation of PKM2 in siRNA mediated PKM2 knockdown human NCI-H1975 cells at 1 to 2 micromol/L by Western blot analysis; type: cell-based; details: dose 1-2 µmol/L
Target sequence in this assay (P14618 2-531 limits assumed): as above

[24] = tested on: NCI-H1975; assay: Antiproliferative activity against siRNA mediated PKM2 knockdown human NCI-H1975 cells assessed as inhibition of cell growth incubated for 24 hrs by CCK-8 assay; type: functional, cell-based; details: NCI-H1975, 24 h
[25] = tested on: NCI-H1975; assay: Effect on PKM2 protein expression in human NCI-H1975 cells at 1 to 2 micromol/L by Western blot analysis; type: functional, cell-based; details: dose 1-2 µmol/L
[26] = tested on: NCI-H1975; assay: Induction of apoptosis in human NCI-H1975 cells transfected with siRNA assessed as late apoptotic cells at 1 micromol/L incubated for 24 hrs by Annexin V-FITC/PI staining based analysis (reference value: 4.03%); type: functional; details: dose 1 µmol/L, at 1 µM
[27] = tested on: NCI-H1975; assay: Inhibition of glycolysis in human NCI-H1975 cells assessed as reduction in glucose consumption incubated for 24 hrs by colorimetric assay; type: functional, cell-based
[28] = tested on: NCI-H1975; assay: Inhibition of glycolysis in human NCI-H1975 cells assessed as reduction in lactate production incubated for 1 hrs by colorimetric assay; type: functional, cell-based
[29] = tested on: NCI-H1975; assay: Induction of oxidative phosphorylation in human NCI-H1975 cells assessed as increase in ATP production by luminescence based assay; type: functional, cell-based
[30] = tested on: NCI-H1975; assay: Antitumor activity against human NCI-H1975 cells xenografted in athymic nu/nu mouse assessed as inhibition of tumor cell proliferation at 2.4 to 4.8 mg/kg, ip administered every 2 days for 11 days by Ki67 staining based analysis; type: functional, organism-based; details: dose 2.4-4.8 mg/kg, time 11.0 day
[31] = tested on: NCI-H1975; assay: Antitumor activity against human NCI-H1975 cells xenografted in athymic nu/nu mouse assessed as induction of apoptosis in tumor at 2.4 to 4.8 mg/kg, ip administered every 2 days for 11 days by TUNEL assay; type: functional, organism-based; details: dose 2.4-4.8 mg/kg, time 11.0 day
[32] = tested on: NCI-H1975; assay: Antitumor activity against human NCI-H1975 cells xenografted in athymic nu/nu mouse assessed as damage in tumor tissue at 2.4 to 4.8 mg/kg, ip administered every 2 days for 11 days by H and E staining based analysis; type: functional, organism-based; details: dose 2.4-4.8 mg/kg, time 11.0 day
[33] = tested on: NCI-H1975; assay: Induction of apoptosis in human NCI-H1975 cells assessed as dead cells at 0.5 micromol/L incubated for 24 hrs by Annexin V-FITC/PI staining based analysis (reference value: 0.103%); type: functional; details: dose 0.5 µmol/L, at 0.5 µM
[34] = tested on: NCI-H1975; assay: Induction of apoptosis in human NCI-H1975 cells assessed as late apoptotic cells at 10 micromol/L incubated for 24 hrs by Annexin V-FITC/PI staining based analysis (reference value: 8.61%); type: functional; details: dose 10 µmol/L, at 10 µM
[35] = tested on: NCI-H1975; assay: Induction of apoptosis in human NCI-H1975 cells assessed as early apoptotic cells at 0.5 micromol/L incubated for 24 hrs in presence of gefitinib by Annexin V-FITC/PI staining based analysis (reference value: 2.55%); type: functional; details: dose 0.5 µmol/L, at 0.5 µM
[36] = in vitro; details: human, HEK293T cells
Description: Cytotoxicity against HEK293T cells assessed as inhibition of cell growth incubated for 24 hrs by CCK-8 assay

Question: For `COC(=O)[C@H](CS[C@H](CC=C(C)C)C1=CC(=O)c2c(O)ccc(O)c2C1=O)NC(=O)CCCC[C@@H]1CCSC(c2ccccc2C)S1` (stereo partly specified), which IC50 [1] is on record?
Answer: 5.48 µM

Question: And the IC50 [2]?
Answer: 5.19 µM

Question: And the Activity [3]?
Answer: Dose-Dependent Effect

Question: And the Activity [4]?
Answer: 4.68%

Question: What about the Activity [5] of the same compound?
Answer: 16.7%

Question: And the Activity [6]?
Answer: 3.84%

Question: And the Activity [7]?
Answer: 22.2%

Question: What about the Activity [8] of the same compound?
Answer: 16.5%

Question: What about the Activity [9] of the same compound?
Answer: 12.1%

Question: And the Activity [10]?
Answer: 41.1%

Question: And the Activity [11]?
Answer: Active

Question: And the Activity [12]?
Answer: Active

Question: And the Activity [13]?
Answer: Active

Question: And the Activity [14]?
Answer: Active

Question: And the Activity [15]?
Answer: Active

Question: And the Activity [16]?
Answer: Active

Question: What about the Activity [17] of the same compound?
Answer: Active

Question: And the Activity [18]?
Answer: 88.1%

Question: And the Activity [19]?
Answer: 62.2%

Question: And the Activity [20]?
Answer: Active

Question: And the Kd [21]?
Answer: 28 µM

Question: What about the Activity [22] of the same compound?
Answer: Active

Question: And the Activity [23]?
Answer: inactive

Question: And the IC50 [24]?
Answer: 8 µM

Question: What about the Activity [25] of the same compound?
Answer: inactive

Question: And the Activity [26]?
Answer: 7.86%

Question: And the inhibition [27]?
Answer: Active

Question: And the inhibition [28]?
Answer: Active

Question: What about the Activity [29] of the same compound?
Answer: Active

Question: What about the Activity [30] of the same compound?
Answer: Active

Question: What about the Activity [31] of the same compound?
Answer: Active

Question: And the Activity [32]?
Answer: Active

Question: And the Activity [33]?
Answer: 0%

Question: What about the Activity [34] of the same compound?
Answer: 9.56%

Question: What about the Activity [35] of the same compound?
Answer: 17.6%

Question: And the IC50 at 24 h [36]?
Answer: 99.5 µM
